Measurements reported in article PMC5218480 (PLoS ONE, 2017).

System: MV-4-11 cells
Assay: Gene expression microarray analysis (Affymetrix PrimeView) and GSEA
Type: cell-based, human
Parameters: RFU PODN (11730768_x_at) / Fold change /veh PODN (11730768_x_at) / RFU LINC00158 (11744669_a_at) / Fold change /veh LINC00158 (11744669_a_at) / RFU DUSP10 (11751237_a_at) / Fold change /veh DUSP10 (11751237_a_at) / RFU ID3 (11757404_x_at) / Fold change /veh ID3 (11757404_x_at) / RFU PLEKHG5 (11737974_s_at) / Fold change /veh PLEKHG5 (11737974_s_at) / RFU LRRC4B (11730491_at) / Fold change /veh LRRC4B (11730491_at) / RFU GIMAP4 (11747438_a_at) / Fold change /veh GIMAP4 (11747438_a_at) / RFU KRT8 (11758183_x_at) / Fold change /veh KRT8 (11758183_x_at) / RFU CNN1 (11734310_a_at) / Fold change /veh CNN1 (11734310_a_at) / RFU VPS37D (11726825_at) / Fold change /veh VPS37D (11726825_at) / RFU C10orf10 (11716522_x_at) / Fold change /veh C10orf10 (11716522_x_at) / RFU KIR2DL2 /// KIR2DL4 /// KIR2DL5A /// KIR2DL5B /// KIR2DS1 /// KIR2DS2 /// KIR2DS3 /// KIR2DS4 /// KIR3DL3 /// KIR3DL3 /// KIR3DS1 (11738374_at) / Fold change /veh KIR2DL2 /// KIR2DL4 /// KIR2DL5A /// KIR2DL5B /// KIR2DS1 /// KIR2DS2 /// KIR2DS3 /// KIR2DS4 /// KIR3DL3 /// KIR3DL3 /// KIR3DS1 (11738374_at) / RFU C1QL1 (11718748_at) / Fold change /veh C1QL1 (11718748_at) / RFU TMPRSS4 (11747572_a_at) / Fold change /veh TMPRSS4 (11747572_a_at) / RFU HAMP (11756126_x_at) / Fold change /veh HAMP (11756126_x_at) / RFU RNFT2 (11725882_a_at) / Fold change /veh RNFT2 (11725882_a_at) / RFU NR4A2 (11747474_a_at) / Fold change /veh NR4A2 (11747474_a_at) / RFU ABCC12 (11746883_a_at) / Fold change /veh ABCC12 (11746883_a_at) / RFU TMEM136 (11760407_x_at) / Fold change /veh TMEM136 (11760407_x_at) / RFU CLDN22 /// WWC2 (11732394_at) / Fold change /veh CLDN22 /// WWC2 (11732394_at) / RFU HLA-DPB1 (11760878_x_at) / Fold change /veh HLA-DPB1 (11760878_x_at) / RFU SPINT1 (11716480_a_at) / Fold change /veh SPINT1 (11716480_a_at) / RFU GAP43 (11754022_s_at) / Fold change /veh GAP43 (11754022_s_at) / RFU A4GNT (11735810_at) / Fold change /veh A4GNT (11735810_at) / RFU PRB3 (11715151_x_at) / Fold change /veh PRB3 (11715151_x_at) / RFU TUBB4B (11761932_at) / Fold change /veh TUBB4B (11761932_at) / RFU CAPN14 (11732068_a_at) / Fold change /veh CAPN14 (11732068_a_at) / RFU TMCC2 (11721928_a_at) / Fold change /veh TMCC2 (11721928_a_at) / RFU IRGQ (11745062_a_at) / Fold change /veh IRGQ (11745062_a_at) / RFU FAM174B (11720279_a_at) / Fold change /veh FAM174B (11720279_a_at) / RFU TMPRSS4 (11748680_a_at) / Fold change /veh TMPRSS4 (11748680_a_at) / RFU FAM212B (11763350_a_at) / Fold change /veh FAM212B (11763350_a_at) / RFU PLEKHG5 (11743358_a_at) / Fold change /veh PLEKHG5 (11743358_a_at) / RFU ZSCAN30 (11745921_a_at) / Fold change /veh ZSCAN30 (11745921_a_at) / RFU CMKLR1 (11741424_a_at) / Fold change /veh CMKLR1 (11741424_a_at) / RFU LOC101060620 /// MAPK8IP1 (11723275_at) / Fold change /veh LOC101060620 /// MAPK8IP1 (11723275_at) / RFU SPTSSB (11747773_x_at) / Fold change /veh SPTSSB (11747773_x_at) / RFU PRSS12 (11739890_at) / Fold change /veh PRSS12 (11739890_at) / RFU BIN1 (11741810_x_at) / Fold change /veh BIN1 (11741810_x_at) / RFU WNT11 (11732464_a_at) / Fold change /veh WNT11 (11732464_a_at) / RFU C10orf10 (11716521_a_at) / Fold change /veh C10orf10 (11716521_a_at) / RFU C5orf56 (11738089_at) / Fold change /veh C5orf56 (11738089_at) / RFU CYB561 (11721691_x_at) / Fold change /veh CYB561 (11721691_x_at) / RFU ANKRD19P (11752326_a_at) / Fold change /veh ANKRD19P (11752326_a_at) / RFU OR2T12 /// OR2T33 /// OR2T8 (11738714_s_at) / Fold change /veh OR2T12 /// OR2T33 /// OR2T8 (11738714_s_at) / RFU VCAN (11748164_a_at) / Fold change /veh VCAN (11748164_a_at) / RFU JSRP1 (11732532_at) / Fold change /veh JSRP1 (11732532_at) / RFU KRTAP10-11 (11738290_x_at) / Fold change /veh KRTAP10-11 (11738290_x_at) / RFU MYO3A (11730013_a_at) / Fold change /veh MYO3A (11730013_a_at) / RFU EBF3 (11725865_a_at) / Fold change /veh EBF3 (11725865_a_at) / RFU CAMK2N1 (11719241_x_at) / Fold change /veh CAMK2N1 (11719241_x_at) / RFU C5orf56 (11738088_a_at) / Fold change /veh C5orf56 (11738088_a_at) / RFU OLFML3 (11715873_a_at) / Fold change /veh OLFML3 (11715873_a_at) / RFU LOC100653217 /// NTM (11731650_a_at) / Fold change /veh LOC100653217 /// NTM (11731650_a_at) / RFU MAPK11 (11762145_a_at) / Fold change /veh MAPK11 (11762145_a_at) / RFU FIZ1 (11724087_x_at) / Fold change /veh FIZ1 (11724087_x_at) / RFU OASL (11726364_x_at) / Fold change /veh OASL (11726364_x_at) / RFU SOX15 (11748057_x_at) / Fold change /veh SOX15 (11748057_x_at) / RFU CD79A (11719716_a_at) / Fold change /veh CD79A (11719716_a_at) / RFU HIST1H1D (11736915_at) / Fold change /veh HIST1H1D (11736915_at) / RFU CASKIN2 (11723855_a_at) / Fold change /veh CASKIN2 (11723855_a_at) / RFU LOC730098 (11760151_x_at) / Fold change /veh LOC730098 (11760151_x_at) / RFU OR4N2 (11742367_at) / Fold change /veh OR4N2 (11742367_at) / RFU PRRT2 (11749266_a_at) / Fold change /veh PRRT2 (11749266_a_at) / RFU SNX32 (11753110_a_at) / Fold change /veh SNX32 (11753110_a_at) / RFU CDHR5 (11726645_a_at) / Fold change /veh CDHR5 (11726645_a_at) / RFU RCAN1 (11760418_a_at) / Fold change /veh RCAN1 (11760418_a_at) / RFU FAM167A (11723789_a_at) / Fold change /veh FAM167A (11723789_a_at) / RFU FAM26E (11764081_at) / Fold change /veh FAM26E (11764081_at) / RFU ISYNA1 (11749810_s_at) / Fold change /veh ISYNA1 (11749810_s_at) / RFU ACY1 (11761880_at) / Fold change /veh ACY1 (11761880_at) / RFU 11764098_at / Fold change /veh 11764098_at / RFU SAMD14 (11745864_x_at) / Fold change /veh SAMD14 (11745864_x_at) / RFU NPB (11741838_a_at) / Fold change /veh NPB (11741838_a_at) / RFU TMPRSS6 (11731388_a_at) / Fold change /veh TMPRSS6 (11731388_a_at) / RFU KRTAP10-2 (11738614_at) / Fold change /veh KRTAP10-2 (11738614_at) / RFU ARHGAP8 /// PRR5-ARHGAP8 (11727945_x_at) / Fold change /veh ARHGAP8 /// PRR5-ARHGAP8 (11727945_x_at) / RFU KRTAP5-7 /// NADSYN1 (11734609_at) / Fold change /veh KRTAP5-7 /// NADSYN1 (11734609_at) / RFU RASL12 (11751679_a_at) / Fold change /veh RASL12 (11751679_a_at) / RFU CDKN2B (11736163_a_at) / Fold change /veh CDKN2B (11736163_a_at) / RFU PRF1 (11729649_at) / Fold change /veh PRF1 (11729649_at) / RFU, ZNF638 /// ZNF638-IT1 / Fold change vs veh, ZNF638 /// ZNF638-IT1 / RFU, PANK3 / Fold change vs veh, PANK3 / RFU, SH3YL1 / Fold change vs veh, SH3YL1 / RFU, ZEB2 / Fold change vs veh, ZEB2 / RFU, NRIP1 / Fold change vs veh, NRIP1 / RFU, PTTG1IP / Fold change vs veh, PTTG1IP / RFU, CAPN2 / Fold change vs veh, CAPN2 / RFU, MED14 / Fold change vs veh, MED14 / RFU, SNORA58 / Fold change vs veh, SNORA58 / RFU, C1orf63 / Fold change vs veh, C1orf63 / RFU, LRRFIP1 / Fold change vs veh, LRRFIP1 / RFU, NDUFAF7 / Fold change vs veh, NDUFAF7 / RFU, SLC12A2 / Fold change vs veh, SLC12A2 / RFU, IBTK / Fold change vs veh, IBTK / RFU, ESF1 / Fold change vs veh, ESF1 / Fold change vs veh, TMEM50B / RFU, TAOK1 / Fold change vs veh, TAOK1 / RFU, ACBD3 / Fold change vs veh, ACBD3 / RFU, TMA16 / Fold change vs veh, TMA16 / RFU, RWDD3 / Fold change vs veh, RWDD3 / RFU, BCAT1 / Fold change vs veh, BCAT1 / RFU, EDEM3 / Fold change vs veh, EDEM3 / RFU, TMEM33 / Fold change vs veh, TMEM33 / RFU, WDR75 / Fold change vs veh, WDR75 / RFU, AHCTF1 / Fold change vs veh, AHCTF1 / RFU, TFRC / Fold change vs veh, TFRC / RFU, ZDHHC17 / Fold change vs veh, ZDHHC17 / RFU, NOM1 / Fold change vs veh, NOM1 / RFU, ARL8B / Fold change vs veh, ARL8B / RFU, ZBTB11 / Fold change vs veh, ZBTB11 / RFU, TAMM41 / Fold change vs veh, TAMM41 / RFU, KIAA1704 /// LOC100996395 / Fold change vs veh, KIAA1704 /// LOC100996395 / RFU, ING1 / Fold change vs veh, ING1 / RFU, TRMT61B / Fold change vs veh, TRMT61B / RFU, FUBP3 / Fold change vs veh, FUBP3 / RFU, TP53 / Fold change vs veh, TP53 / RFU, TNKS2 / Fold change vs veh, TNKS2 / RFU, ZFP14 / Fold change vs veh, ZFP14 / RFU, ACTR2 / Fold change vs veh, ACTR2 / RFU, PPP3R1 / Fold change vs veh, PPP3R1 / RFU, PIK3R1 / Fold change vs veh, PIK3R1 / RFU, HNRNPA1 / Fold change vs veh, HNRNPA1 / RFU, RNF170 / Fold change vs veh, RNF170 / RFU, ZNF28 / Fold change vs veh, ZNF28 / RFU, RNGTT / Fold change vs veh, RNGTT / RFU, OGT / Fold change vs veh, OGT / RFU, BRD1 / Fold change vs veh, BRD1 / RFU, MARS / Fold change vs veh, MARS / RFU, ZNF655 / Fold change vs veh, ZNF655 / RFU, FAHD1 / Fold change vs veh, FAHD1 / RFU, BDP1 / Fold change vs veh, BDP1 / RFU, LRRCC1 / Fold change vs veh, LRRCC1 / RFU, ARID1A / Fold change vs veh, ARID1A / RFU, ZNF146 / Fold change vs veh, ZNF146 / RFU, ZNF330 / Fold change vs veh, ZNF330 / RFU, GPN3 / Fold change vs veh, GPN3 / RFU, C9orf123 / Fold change vs veh, C9orf123 / RFU, N4BP2L2 / Fold change vs veh, N4BP2L2 / RFU, ARFIP1 / Fold change vs veh, ARFIP1 / RFU, FAM179B / Fold change vs veh, FAM179B / RFU, BCL10 / Fold change vs veh, BCL10 / RFU, UHRF1BP1L / Fold change vs veh, UHRF1BP1L / RFU, BET1 / Fold change vs veh, BET1 / RFU, CNOT2 / Fold change vs veh, CNOT2 / RFU, ZNF268 / Fold change vs veh, ZNF268 / Fold change vs veh, ZNF507 / RFU, DGCR2 / Fold change vs veh, DGCR2 / RFU, WDSUB1 / Fold change vs veh, WDSUB1 / Fold change vs veh, HSP90B1 /// MIR3652 / RFU, ADSS / Fold change vs veh, ADSS / RFU, GK / Fold change vs veh, GK / RFU, ZNF148 / Fold change vs veh, ZNF148 / RFU, TAF9 / Fold change vs veh, TAF9 / RFU, SLC1A5 / Fold change vs veh, SLC1A5 / RFU, SLMO2 / Fold change vs veh, SLMO2 / RFU, ABCC4 / Fold change vs veh, ABCC4 / RFU, LOC101060439 /// RAP1B / Fold change vs veh, LOC101060439 /// RAP1B / RFU, RFX7 / Fold change vs veh, RFX7 / RFU, GTPBP10 / Fold change vs veh, GTPBP10 / RFU, CNEP1R1 / Fold change vs veh, CNEP1R1 / RFU, BIVM-ERCC5 /// ERCC5 / Fold change vs veh, BIVM-ERCC5 /// ERCC5 / RFU, ILF3 / Fold change vs veh, ILF3 / RFU 11762660_at / Fold change /veh 11762660_at / RFU VCAN (11757783_s_at) / Fold change /veh VCAN (11757783_s_at) / RFU DDX43 (11728927_at) / Fold change /veh DDX43 (11728927_at) / RFU KRT8 (11758188_x_at) / Fold change /veh KRT8 (11758188_x_at) / RFU NKD1 (11759106_at) / Fold change /veh NKD1 (11759106_at) / RFU SRD5A1 (11742802_a_at) / Fold change /veh SRD5A1 (11742802_a_at) / RFU TPSAB1 /// TPSB2 (11721975_s_at) / Fold change /veh TPSAB1 /// TPSB2 (11721975_s_at) / RFU GSTM3 (11746129_a_at) / Fold change /veh GSTM3 (11746129_a_at) / RFU IL23R (11737362_x_at) / Fold change /veh IL23R (11737362_x_at) / RFU TMEM51 (11727254_a_at) / Fold change /veh TMEM51 (11727254_a_at) / RFU PIWIL2 (11732686_x_at) / Fold change /veh PIWIL2 (11732686_x_at) / RFU ORM1 (11744905_x_at) / Fold change /veh ORM1 (11744905_x_at) / RFU CCDC152 (11743942_at) / Fold change /veh CCDC152 (11743942_at) / RFU ECM1 (11717891_a_at) / Fold change /veh ECM1 (11717891_a_at) / RFU IL23R (11748794_a_at) / Fold change /veh IL23R (11748794_a_at) / RFU TNFAIP8L3 (11732012_x_at) / Fold change /veh TNFAIP8L3 (11732012_x_at) / RFU MBOAT4 (11741988_at) / Fold change /veh MBOAT4 (11741988_at) / RFU 11764193_at / Fold change /veh 11764193_at / RFU TMEM53 (11763286_at) / Fold change /veh TMEM53 (11763286_at) / RFU MAGEB2 (11727129_at) / Fold change /veh MAGEB2 (11727129_at) / RFU TMEM200A (11744735_a_at) / Fold change /veh TMEM200A (11744735_a_at) / RFU CCDC152 (11751479_a_at) / Fold change /veh CCDC152 (11751479_a_at) / RFU FAM211A (11726209_a_at) / Fold change /veh FAM211A (11726209_a_at) / RFU RGS16 (11746705_a_at) / Fold change /veh RGS16 (11746705_a_at) / RFU VCAN (11755009_s_at) / Fold change /veh VCAN (11755009_s_at) / RFU RHOB (11743442_s_at) / Fold change /veh RHOB (11743442_s_at) / RFU RGS16 (11720943_a_at) / Fold change /veh RGS16 (11720943_a_at) / RFU RGS16 (11720944_at) / Fold change /veh RGS16 (11720944_at) / RFU, VPS4B / Fold change vs veh, VPS4B / RFU, CREB1 / Fold change vs veh, CREB1 / RFU, DNAJC13 / Fold change vs veh, DNAJC13 / RFU, GNAQ / Fold change vs veh, GNAQ / RFU, CDK5R1 / Fold change vs veh, CDK5R1 / RFU, ZRANB3 / Fold change vs veh, ZRANB3 / RFU, CUL4A / Fold change vs veh, CUL4A / RFU, CCNY / Fold change vs veh, CCNY / RFU, UFL1 / Fold change vs veh, UFL1 / RFU, COG3 / Fold change vs veh, COG3 / RFU, DIAPH2 / Fold change vs veh, DIAPH2 / RFU, SKA2 / Fold change vs veh, SKA2 / RFU, AFF3 / Fold change vs veh, AFF3 / RFU, LMF1 / Fold change vs veh, LMF1 / RFU, IPO11 / Fold change vs veh, IPO11 / RFU, DFFB / Fold change vs veh, DFFB / RFU, FOXP1 / Fold change vs veh, FOXP1 / RFU, CARD8 / Fold change vs veh, CARD8 / RFU, STRN3 / Fold change vs veh, STRN3 / RFU, ADK / Fold change vs veh, ADK / RFU, RASSF2 / Fold change vs veh, RASSF2 / RFU, WIPF1 / Fold change vs veh, WIPF1 / RFU, LARP1B / Fold change vs veh, LARP1B / RFU, RASA1 / Fold change vs veh, RASA1 / RFU, RB1 / Fold change vs veh, RB1 / RFU, PPFIA1 / Fold change vs veh, PPFIA1 / RFU, MAT2A / Fold change vs veh, MAT2A / RFU, CCT5 / Fold change vs veh, CCT5 / RFU, WDR92 / Fold change vs veh, WDR92 / RFU, CUX1 / Fold change vs veh, CUX1 / RFU, TTC7A / Fold change vs veh, TTC7A / RFU, TMEM135 / Fold change vs veh, TMEM135 / RFU, DEPTOR / Fold change vs veh, DEPTOR / RFU, CPM / Fold change vs veh, CPM / RFU, DNAJB6 / Fold change vs veh, DNAJB6 / RFU, CACNA2D3 / Fold change vs veh, CACNA2D3 / RFU, DTX4 / Fold change vs veh, DTX4 / RFU, TFCP2 / Fold change vs veh, TFCP2 / RFU, GMCL1 /// GMCL1P1 / Fold change vs veh, GMCL1 /// GMCL1P1 / RFU, AEBP2 / Fold change vs veh, AEBP2 / RFU, SNHG1 /// SNORD22 /// SNORD25 /// SNORD26 /// SNORD27 /// SNORD28 /// SNORD29 /// SNORD31 / Fold change vs veh, SNHG1 /// SNORD22 /// SNORD25 /// SNORD26 /// SNORD27 /// SNORD28 /// SNORD29 /// SNORD31 / Fold change (Aza/veh), C12orf56 (ProbeSet 11735607_a_at) / Fold change (ACY-1035/veh), C12orf56 (ProbeSet 11735607_a_at) / Fold change (Aza/veh), FGFR1OP (ProbeSet 11751329_s_at) / Fold change (ACY-1035/veh), FGFR1OP (ProbeSet 11751329_s_at) / Fold change (Aza/veh), VPS36 (ProbeSet 11739960_a_at) / Fold change (ACY-1035/veh), VPS36 (ProbeSet 11739960_a_at) / RFU SYPL1 (11715823_x_at) / Fold change /veh SYPL1 (11715823_x_at) / RFU IGFBP7 (11715501_s_at) / Fold change /veh IGFBP7 (11715501_s_at) / RFU REEP3 (11722064_at) / Fold change /veh REEP3 (11722064_at) / RFU IGLL1 (11728026_x_at) / Fold change /veh IGLL1 (11728026_x_at): dose or concentration left out as unconfirmed
Conditions: ProbeSet 11731093_s_at; LIST B

Structure (SMILES): Nc1ccc(-c2cccs2)cc1NC(=O)c1ccc2c(c1)cc(C1CC1)n2CCN1CCOCC1 [ACY-1035]
- RFU, BRD1: 190.44 RFU
